How the values were obtained:
Aurora B = Aurora B (Homo sapiens, UniProt Q96GD4); assay: Aurora B enzyme assay (Caliper); assay type: biochemical
Method: (§1) The Aurora and other kinase assays described here were performed on two Caliper Life Sciences systems, the LC3000 and the Desktop Profiler. These provide data on enzyme activity via measurement of the relative amounts of phosphorylated or unphosphorylated fluorescently labelled substrate peptide at the end of an enzymatic reaction. These different states of peptide are resolved by applying a potential difference across the sample. The presence of a charged phosphate group on the product (as opposed to the substrate) causes a different peptide mobility between the two peptides. This is visualized by excitation of a fluorescent label on the substrate and product peptides and represented as peaks within the analysis software.

Aurora A = target: T1, Aurora A (Homo sapiens, UniProt O14965); assay: Aurora A enzyme assay (Caliper LC3000 mobility shift); assay type: biochemical
T1 construct: N-terminal GST fusion with full length Aurora A (1-403 amino acids); purchased Carna Biosciences 05-101
T1 sequence (O14965 1-403): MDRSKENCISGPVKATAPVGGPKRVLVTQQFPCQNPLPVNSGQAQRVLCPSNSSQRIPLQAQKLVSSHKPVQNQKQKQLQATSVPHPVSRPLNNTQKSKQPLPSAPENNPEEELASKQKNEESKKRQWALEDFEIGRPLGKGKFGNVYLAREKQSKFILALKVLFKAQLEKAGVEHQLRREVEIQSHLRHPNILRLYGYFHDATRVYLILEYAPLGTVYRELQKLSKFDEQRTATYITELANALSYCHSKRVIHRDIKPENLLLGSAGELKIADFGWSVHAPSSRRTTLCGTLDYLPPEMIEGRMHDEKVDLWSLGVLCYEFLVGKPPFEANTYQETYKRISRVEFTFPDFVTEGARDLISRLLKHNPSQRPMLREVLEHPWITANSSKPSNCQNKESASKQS
Method: as §1
For example, in order to measure inhibitor activity of Aurora A inhibitors in the Caliper Life Sciences LC3000, a TTP Mosquito liquid handling instrument was used to place […] of an appropriate concentration of inhibitor in 100% DMSO (for a dose response curve calculation) into each well of a 384-well plate. To this reaction components were added to a final volume of 25 μl: • 0.067 ng/μl GST-Aurora A (Carna Biosciences 05-101. N-terminal GST fusion with full length Aurora A (1-403 amino acids), accession number NP_940835.1). • 15 μM ATP (Fluka, 02055) • 1 mM DTT (Sigma, D0632) • 1 mM MgC12 (Sigma, M1028) • 1 μM substrate peptide (sequence FITC-LRRASLG-(CONH2), synthesized by Tufts Peptide Synthesis service. • 100 mM HEPES pH 7.5 (Calbiochem, 391338) • 0.015% Brij-35 (Sigma, B4184)
The reaction was incubated for 90 min at 25° C., and then stopped by the addition of 70 μl of Stop buffer (100 mM HEPES pH 7.5, 0.015% Brij-35, 10 mM EDTA (Sigma, E7889)).
The plate was read on a Caliper LC 3000 in an Off-Chip mobility shift assay format, using the following parameters for a 12-sipper chip: screening pressure −1.8 psi, upstream voltage −2700, downstream voltage −1000. These conditions cause unphosphorylated substrate and phosphorylated product peptide to resolve as separate peaks allowing direct measurement of percentage of conversion of substrate to product. The percent conversion was plotted against concentration of inhibitor to produce a sigmoidal dose response curve, from which an IC50 was calculated using XLFit for Microsoft Excel.

A549 = assay: Cellular activity A549; assay type: cell-based; details: Homo sapiens
Method: (§2) The susceptibility of a particular cell to treatment with the compounds according to the invention was determined by in vitro tests. Typically, a culture of the cell was combined with a compound according to the invention at various concentrations for a period of time that was sufficient to allow the active agents to induce cell death or to inhibit migration, usually between about one hour and one week. In vitro testing was carried out using cultivated cells from a biopsy sample. The viable cells remaining after the treatment then were counted.

MiaPaca2 = assay: Cellular activity MiaPaca2; assay type: cell-based; details: Homo sapiens, MIA PaCa-2
Method: as §2

Chain of Aurora B (Q96GD4 whole entry): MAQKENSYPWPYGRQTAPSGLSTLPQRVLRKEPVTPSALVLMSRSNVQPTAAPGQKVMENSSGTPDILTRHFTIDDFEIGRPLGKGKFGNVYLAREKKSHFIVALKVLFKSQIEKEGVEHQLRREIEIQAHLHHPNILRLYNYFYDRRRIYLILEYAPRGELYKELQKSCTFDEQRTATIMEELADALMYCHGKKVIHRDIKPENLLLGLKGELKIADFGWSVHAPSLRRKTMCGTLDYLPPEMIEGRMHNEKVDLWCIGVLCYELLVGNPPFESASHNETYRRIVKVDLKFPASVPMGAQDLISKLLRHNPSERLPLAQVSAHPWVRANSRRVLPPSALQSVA

SMILES	IC50 (Aurora B) [µM]	IC50 (Aurora A) [µM]	IC50 (A549) [µM]	IC50 (MiaPaca2) [µM]
Fc1cnc2nc1NC1CCCC(C1)OC/C=C/COc1cccc(c1)N2 (centres unmarked)	0.101 to 1	0.101 to 1		
Fc1cnc2nc1NC1CCCC(C1)OC/C=C\COc1cccc(c1)N2 (centres unmarked)	0.101 to 1	0.101 to 1		
Fc1cnc2nc1N[C@H]1CCC[C@@H](C1)OCCCCOc1cccc(c1)N2		1 to 6.25		
Fc1cnc2nc1N[C@@H]1CCC[C@H](C1)OCCCCOc1cccc(c1)N2		0.101 to 1		
O[C@@H]1COc2cccc(c2)Nc2ncc(F)c(n2)NC2CCCC(C2)OC[C@@H]1O (some centres unmarked)		0.101 to 1		
O[C@@H]1COC2CCCC(C2)Nc2nc(ncc2F)Nc2cccc(c2)OC[C@@H]1O (some centres unmarked)		0.101 to 1		
Fc1cnc2nc1NC1CCC(CC1)OC/C=C/COc1cccc(c1)N2		0.101 to 1		
Fc1cnc2nc1NC1CCC(CC1)OC/C=C\COc1cccc(c1)N2	> 6.25	0.101 to 1		
CCC1CC2[C@H](O)C(O)COc3cccc(c3)Nc3ncc(F)c(n3)N[C@H]2[C@H]1C(N)=O (some centres unmarked)		1 to 6.25		
NC(=O)[C@H]1C([C@@H](O)CO)CC2[C@H]1Nc1nc(ncc1F)Nc1cccc(c1)OC[C@H](O)[C@H]2O (some centres unmarked)		1 to 6.25		
NC(=O)[C@H]1C([C@@H](O)CO)CC2C(O)[C@H](O)COc3cccc(c3)Nc3ncc(F)c(n3)N[C@H]21 (some centres unmarked)		1 to 6.25		
NC(=O)[C@H]1[C@H]2C[C@H]3[C@H]1Nc1nc(ncc1F)Nc1cccc(c1)C(O)CS[C@@H]3C2 (some centres unmarked)		0.001 to 0.1	0.101 to 1	0.101 to 1
NC(=O)[C@H]1[C@H]2C[C@H]3[C@H]1Nc1nc(ncc1F)Nc1cccc(c1)CC[S+]([O-])[C@@H]3C2 (some centres unmarked)	0.001 to 0.1	0.001 to 0.1	1 to 6.25	1 to 6.25
NC(=O)[C@H]1[C@H]2C[C@H]3[C@H]1Nc1nc(ncc1F)Nc1cccc(c1)CCS(=O)(=O)[C@@H]3C2	0.001 to 0.1	0.001 to 0.1	1 to 6.25	1 to 6.25
NC(=O)[C@H]1[C@@H]2CC3NNC(=O)Cc4cccc(c4)Nc4ncc(F)c(n4)N[C@@H]1[C@@H]3C2 (some centres unmarked)	0.001 to 0.1	0.001 to 0.1	> 6.25	> 6.25
NC[C@H]1[C@H]2C[C@H]3[C@H]1Nc1nc(ncc1F)Nc1cccc(c1)C(O)CS[C@@H]3C2 (some centres unmarked)		1 to 6.25	> 6.25	> 6.25
NC(=O)[C@H]1[C@H]2C[C@H]3[C@H]1Nc1nc(ncc1F)Nc1cccc(c1)/C=C\S[C@@H]3C2		0.101 to 1		
C=CC(=O)NC[C@H]1[C@H]2C[C@H]3[C@H]1Nc1nc(ncc1F)Nc1cccc(c1)C(O)CS[C@@H]3C2 (some centres unmarked)		0.101 to 1	> 6.25	> 6.25
NC(=O)[C@H]1[C@H]2C[C@H]3[C@H]1Nc1nc(ncc1F)Nc1cccc(c1)[C@H](OCCO)CS[C@@H]3C2		0.001 to 0.1	1 to 6.25	1 to 6.25
NC(=O)[C@H]1[C@H]2C[C@H]3[C@H]1Nc1nc(ncc1F)Nc1cnn(c1)CCS[C@@H]3C2		0.001 to 0.1		
NC(=O)[C@H]1[C@@H]2CC3CNC(=O)Cc4cccc(c4)Nc4ncc(F)c(n4)N[C@@H]1[C@@H]3C2 (some centres unmarked)		0.001 to 0.1		
CN1CCN(c2ccc3cc2C(=O)CS[C@@H]2C[C@@H]4C[C@H]2[C@@H](Nc2nc(ncc2F)N3)[C@H]4C(N)=O)CC1		0.001 to 0.1	1 to 6.25	1 to 6.25

SMILES	IC50 (Aurora B) [µM]	IC50 (Aurora A) [µM]	IC50 (A549) [µM]	IC50 (MiaPaca2) [µM]
CN1CCN(c2ccc3cc2C(O)CS(=O)(=O)[C@@H]2C[C@@H]4C[C@H]2[C@@H](Nc2nc(ncc2F)N3)[C@H]4C(N)=O)CC1 (some centres unmarked)	0.001 to 0.1	0.001 to 0.1		
CN1CCN(c2ccc3cc2C(=O)CS(=O)(=O)[C@@H]2C[C@@H]4C[C@H]2[C@@H](Nc2nc(ncc2F)N3)[C@H]4C(N)=O)CC1	1 to 6.25	0.001 to 0.1		
CN1CCC(c2ccc3cc2OCCS[C@@H]2C[C@@H]4C[C@H]2[C@@H](Nc2nc(ncc2F)N3)[C@H]4C(N)=O)CC1	0.001 to 0.1	0.001 to 0.1	0.101 to 1	0.101 to 1
NC(=O)[C@H]1[C@H]2C[C@H]3[C@H]1Nc1nc(ncc1F)Nc1cccc(c1)N(Cc1cccs1)C(=O)CS[C@@H]3C2	1 to 6.25	0.101 to 1		
NC(=O)[C@H]1[C@H]2C[C@H]3[C@H]1Nc1nc(ncc1F)Nc1cc(ccc1O)C(=O)CS[C@@H]3C2	1 to 6.25	1 to 6.25		
Nc1ccc(/C=C/NC(=O)[C@H]2[C@H]3C[C@H]4[C@H]2Nc2nc(ncc2F)Nc2cccc(c2)C(=O)CS[C@@H]4C3)cc1	0.101 to 1	0.101 to 1	> 6.25	> 6.25
NC(=O)[C@H]1[C@H]2C[C@H]3[C@H]1Nc1nc(ncc1F)Nc1cccc(c1)OCCCS[C@@H]3C2	0.001 to 0.1	0.001 to 0.1	1 to 6.25	1 to 6.25
NC(=O)[C@H]1[C@H]2C[C@H]3[C@H]1Nc1nc(ncc1F)Nc1ccc(F)c(c1)CC(=O)O[C@@H]3C2	1 to 6.25	1 to 6.25		
NC(=O)[C@H]1[C@H]2C[C@H]3[C@H]1Nc1nc(ncc1F)Nc1cccc(c1)CCC(=O)O[C@@H]3C2	0.101 to 1	0.101 to 1	1 to 6.25	1 to 6.25
CC(=O)N1Cc2cccc(c2)Nc2ncc(F)c(n2)N[C@@H]2[C@@H]3C[C@@H](C[C@H]3C1)[C@@H]2C(=O)O	> 6.25	1 to 6.25		
NC(=O)[C@H]1[C@@H]2C[C@H]3CNS(=O)(=O)c4cccc(c4)Nc4ncc(F)c(n4)N[C@@H]1[C@@H]3C2	0.001 to 0.1	0.001 to 0.1	1 to 6.25	1 to 6.25
CN1CCN(c2ccc3cc2OCCN[C@@H]2C[C@@H]4C[C@H]2[C@@H](Nc2nc(ncc2F)N3)[C@H]4C(N)=O)CC1	0.001 to 0.1	0.101 to 1	0.101 to 1	0.101 to 1
CN1CCN(c2ccc3cc2OCCN(C)[C@@H]2C[C@@H]4C[C@H]2[C@@H](Nc2nc(ncc2F)N3)[C@H]4C(N)=O)CC1	0.001 to 0.1	0.001 to 0.1		
NC(=O)[C@H]1[C@H]2C[C@H]3[C@H]1Nc1nc(ncc1F)Nc1ccc(F)c(c1)CC(=O)N[C@@H]3C2	0.001 to 0.1	0.001 to 0.1	1 to 6.25	1 to 6.25
NC(=O)[C@H]1[C@H]2C[C@H]3[C@H]1Nc1nc(ncc1F)Nc1cccc(c1)NC(=O)CN[C@@H]3C2	0.101 to 1	1 to 6.25		
CN1CCN(c2ccc3cc2NC(=O)CN[C@@H]2C[C@@H]4C[C@H]2[C@@H](Nc2nc(ncc2F)N3)[C@H]4C(N)=O)CC1	0.001 to 0.1	0.001 to 0.1	1 to 6.25	1 to 6.25
NC(=O)[C@H]1[C@H]2C[C@H]3[C@H]1Nc1nc(ncc1F)Nc1cccc(c1)CCC(=O)N[C@@H]3C2	0.101 to 1	0.101 to 1	1 to 6.25	1 to 6.25
NC(=O)[C@H]1[C@H]2C[C@H]3[C@H]1Nc1nc(ncc1F)Nc1cccc(c1)CCN[C@@H]3C2	0.001 to 0.1	0.101 to 1	1 to 6.25	1 to 6.25
NC(=O)[C@H]1[C@H]2C[C@H]3[C@H]1Nc1nc(ncc1F)Nc1cccc(c1)C(O)CN[C@@H]3C2 (some centres unmarked)	0.001 to 0.1	0.101 to 1	1 to 6.25	1 to 6.25
NC(=O)[C@H]1[C@H]2C[C@H]3[C@H]1Nc1nc(ncc1F)Nc1cccc(c1)CS(=O)(=O)N[C@@H]3C2	0.101 to 1	0.101 to 1		
NC(=O)[C@H]1[C@H]2C[C@H]3[C@H]1Nc1nc(ncc1F)Nc1cccc(c1)COCc1cn(nn1)[C@@H]3C2		0.001 to 0.1	1 to 6.25	1 to 6.25
NC(=O)[C@H]1[C@H]2C[C@H]3[C@H]1Nc1nc(ncc1F)Nc1cccc(c1)S(=O)(=O)NC(=O)N[C@@H]3C2		0.101 to 1		

Reference: patent US8815872B2, “Macrocyclics pyrimidines as aurora kinase inhibitors” (Merck Patent GmbH, priority 2008, dated 2014)
